Laboratory results: ChEMBL document CHEMBL1201862, “PubChem BioAssay data set” (2004)
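1) Cells in 96-well plates. 2) Compound, 48 h, 5 concentrations. 3) Linear interpolation between surrounding doses. 4) Unreached endpoint = highest concentration. GI50 = concentration required for 50% inhibition of growth.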 The source made the active and inactive calls. Rule as the data show it: active = GI50 up to about 1.1 µM and inactive = higher.

Experiments:
Experiment in all cases: inhibition of tumour cell growth, NCI panel, 48 h
A549 = tested on: A549
EKVX = tested on: EKVX
HCC 2998 = tested on: HCC 2998
HOP-62 = tested on: HOP-62
HT-29 = tested on: HT-29
KM-20L2 = tested on: KM-20L2
KM12 = tested on: KM12
M14 = tested on: M14
Malme-3M = tested on: Malme-3M
NCI-H522 = tested on: NCI-H522
OVCAR-4 = tested on: OVCAR-4
OVCAR-8 = tested on: OVCAR-8
SN12C = tested on: SN12C
SW-620 = tested on: SW-620
UACC-257 = tested on: UACC-257
UO-31 = tested on: UO-31

Measured: GI50

COc1ccc(C(=O)CC(=O)C(=O)Nc2ccc(C)c(C)c2)cc1
inactive: A549 > 91.8 µM | EKVX > 100 µM | HCC 2998 97.3 µM | HOP-62 > 90.8 µM | HT-29 > 100 µM | KM-20L2 > 77.1 µM | KM12 > 100 µM | M14 > 100 µM | Malme-3M > 100 µM | NCI-H522 68.9 µM | OVCAR-4 85.5 µM | OVCAR-8 > 100 µM | SN12C > 91.6 µM | SW-620 28.4 µM | UACC-257 > 100 µM | UO-31 98.6 µM

O=C(c1ccccc1)c1nnn(Cc2ccccc2Cn2nnc(C(=O)c3ccccc3)c2C(=O)c2ccccc2)c1C(=O)c1ccccc1
inactive: A549 48.2 µM | EKVX 47.6 µM | HCC 2998 > 100 µM | HOP-62 > 100 µM | HT-29 > 100 µM | KM-20L2 > 100 µM | KM12 > 100 µM | M14 > 100 µM | Malme-3M > 100 µM | NCI-H522 > 100 µM | OVCAR-4 > 100 µM | OVCAR-8 > 100 µM | SN12C > 100 µM | SW-620 > 100 µM | UACC-257 > 100 µM | UO-31 > 100 µM

c1ccc(-c2nnc(-c3nn(-c4ccccc4)c4nc5ccccc5nc34)o2)cc1
inactive: A549 > 100 µM | EKVX > 100 µM | HCC 2998 > 100 µM | HOP-62 > 100 µM | HT-29 > 100 µM | KM-20L2 > 100 µM | KM12 > 100 µM | M14 79.1 µM | Malme-3M 45.5 µM | NCI-H522 44.9 µM | OVCAR-4 > 100 µM | OVCAR-8 51.9 µM | SN12C > 100 µM | SW-620 92.3 µM | UACC-257 64.3 µM | UO-31 37.2 µM

CC1=NN(C(=O)CC(=O)Nc2cccc(Cl)c2)C(=O)C1/N=N/c1ccc(S(N)(=O)=O)cc1 (centres undefined)
inactive: A549 > 100 µM | EKVX > 100 µM | HCC 2998 > 100 µM | HOP-62 > 100 µM | HT-29 > 100 µM | KM-20L2 > 100 µM | KM12 > 100 µM | M14 > 100 µM | Malme-3M > 100 µM | NCI-H522 > 100 µM | OVCAR-4 > 100 µM | OVCAR-8 > 100 µM | SN12C > 100 µM | SW-620 > 100 µM | UACC-257 > 100 µM | UO-31 > 100 µM

CCc1ccccc1NC(=O)C1=C(C)NC(C)=C(C(=O)Nc2ccccc2CC)C1c1ccc(NC(C)=O)cc1
inactive: A549 51.1 µM | EKVX 60.7 µM | HCC 2998 19.5 µM | HOP-62 36.7 µM | HT-29 37.7 µM | KM-20L2 16.4 µM | KM12 28.1 µM | M14 39 µM | Malme-3M 49.1 µM | NCI-H522 20.8 µM | OVCAR-4 35.1 µM | OVCAR-8 33.9 µM | SN12C 29.8 µM | SW-620 41.2 µM | UACC-257 36.3 µM | UO-31 35.2 µM

C[Si](C)(C)C#C[I+]c1ccccc1
inactive: A549 > 100 µM | EKVX 52.1 µM | HCC 2998 > 100 µM | HOP-62 > 100 µM | HT-29 32.9 µM | KM-20L2 37.5 µM | KM12 87.3 µM | M14 23.5 µM | Malme-3M 41 µM | NCI-H522 9.4 µM | OVCAR-4 36.2 µM | OVCAR-8 19.6 µM | SN12C 21.7 µM | UACC-257 > 100 µM | UO-31 67 µM

C/C(=N/OCCC(=O)O)C1CC1
inactive: A549 > 100 µM | EKVX > 100 µM | HCC 2998 > 100 µM | HOP-62 > 100 µM | HT-29 > 100 µM | KM-20L2 > 100 µM | KM12 > 100 µM | M14 > 100 µM | Malme-3M > 100 µM | NCI-H522 > 100 µM | OVCAR-4 > 100 µM | OVCAR-8 > 100 µM | SN12C > 100 µM | SW-620 > 100 µM | UO-31 > 100 µM

Cc1ccc(-c2cc(=S)n(-c3ccccc3)c3[nH]c(=S)n(-c4ccccc4)c(=N)c23)cc1
inactive: A549 > 100 µM | HCC 2998 > 100 µM | HOP-62 > 100 µM | HT-29 > 100 µM | KM-20L2 > 100 µM | KM12 > 100 µM | M14 > 100 µM | Malme-3M > 100 µM | NCI-H522 77.8 µM | OVCAR-4 > 100 µM | OVCAR-8 > 100 µM | SW-620 > 100 µM | UACC-257 > 100 µM | UO-31 > 100 µM

COc1ccc(/C=C/C(=O)c2c(-c3ccccc3)nn(C)c(=O)c2N2CCOCC2)cc1
inactive: A549 > 100 µM | EKVX > 100 µM | HT-29 > 100 µM | KM-20L2 60.3 µM | M14 > 100 µM | NCI-H522 > 100 µM | OVCAR-8 > 100 µM | SN12C > 100 µM | SW-620 > 100 µM | UO-31 > 100 µM
